Measurements reported in patent US8138194B2, “Fused bicyclic pyrimidine compounds as aurora kinase inhibitors” (National Health Research Institutes, priority 2008, dated 2012).
Several values for one entry are separate records, joined by “and”; a condition that tells them apart may be missing. Identical values can stand only once.

Target: T1, GST-tAurora A (123-401aa) fusion protein (Homo sapiens, UniProt O14965)
T1 construct: GST-tAurora A (123-401aa) fusion protein; made in house; host or cells: Sf9 insect cells (baculovirus, pBacPAK8)
T1 sequence (O14965 123-401): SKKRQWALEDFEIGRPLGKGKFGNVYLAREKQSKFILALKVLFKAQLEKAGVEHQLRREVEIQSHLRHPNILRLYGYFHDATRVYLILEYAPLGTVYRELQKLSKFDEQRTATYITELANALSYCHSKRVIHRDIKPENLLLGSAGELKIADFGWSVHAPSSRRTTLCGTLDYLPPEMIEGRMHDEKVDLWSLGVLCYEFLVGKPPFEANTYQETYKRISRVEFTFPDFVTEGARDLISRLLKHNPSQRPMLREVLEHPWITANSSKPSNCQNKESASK
Test: Aurora Kinase A luminescent kinase assay
Format: biochemical
Details: IC50 (concentration of a test compound at which activity of 50% of Aurora A is inhibited)
Method: The Aurora A catalytic domain with an N-terminal GST tag was constructed in pBacPAK8 plasmid and expressed in sf9 cells. […] To concentrate GST-tAurora A, buffer was replaced with Tris buffer (100 mM Tris (pH 7.5), 300 mM NaCl, 1 mM EDTA, 4 mM DTT) using Amicon ultra-15 (MWCO:30K, Millipore) to 2.4 mg/ml. After the addition of equal volume of glycerol and 0.04% Triton X-100, the proteins were stored aliquoted at −80° C.
Briefly, a test compound, enzyme, substrate-tetra(LRRWSLG), DTT and ATP were dissolved in Aur buffer (50 mM Tris-HCl pH 7.4, 10 mM NaCl, 10 mM MgCl2, and 100 μg/ml BSA) individually before the assay. […] 5 μM ATP (5 μl), 1 mM DTT (5 μl) and 0.1 mM tetra(LRRWSLG) peptide substrate (5 μl) were added into the reactions of test compounds and GST-tAurora A. The reactions were incubated at 37° C. for 90 min. 50 μl of Kinase-Glo Plus Reagent (V3771, Promega) was added into the reactions, followed by the incubation at 25° C. for 20 min.

Row | SMILES | IC50
1 | Nc1ccc(CNc2ncnc3oc(-c4ccccc4)c(-c4ccccc4)c23)cc1 [Compound 1, N-(4-aminobenzyl)-5,6-diphenylfuro[2,3-d]pyrimidin-4-amine] | < 1000 nM
2 | Nc1ccc(CCNc2ncnc3oc(-c4ccccc4)c(-c4ccccc4)c23)cc1 [Compound 3, N-(4-aminophenethyl)-5,6-diphenylfuro[2,3-d]pyrimidin-4-amine] | < 1000 nM
3 | Oc1ccc(CCNc2ncnc3oc(-c4ccccc4)c(-c4ccccc4)c23)cc1 [Compound 4] | < 1000 nM
4 | CN(C)C(=O)Nc1ccc(CCNc2ncnc3oc(-c4ccccc4)c(-c4ccccc4)c23)cc1 [Compound 9] | 45 to 400 nM and < 1000 nM
5 | O=C(Nc1ccc(CCNc2ncnc3oc(-c4ccccc4)c(-c4ccccc4)c23)cc1)Oc1ccccc1 [Compound 17] | 45 to 400 nM and < 1000 nM
6 | O=C(Nc1ccccc1)Oc1ccc(CCNc2ncnc3oc(-c4ccccc4)c(-c4ccccc4)c23)cc1 [Compound 18] | 45 to 400 nM and < 1000 nM
7 | O=C(NCCCl)Nc1ccc(CCNc2ncnc3oc(-c4ccccc4)c(-c4ccccc4)c23)cc1 [Compound 19] | 45 to 400 nM and < 1000 nM
8 | O=C(NCCN1CCOCC1)Nc1ccc(CCNc2ncnc3oc(-c4ccccc4)c(-c4ccccc4)c23)cc1 [Compound 20] | 45 to 400 nM and < 1000 nM
9 | O=C(Nc1ccc(CCNc2ncnc3oc(-c4ccccc4)c(-c4ccccc4)c23)cc1)N1CCN(c2ccc(F)cc2)CC1 [Compound 22] | < 1000 nM
10 | Nc1ccc(CCOc2ncnc3oc(-c4ccccc4)c(-c4ccccc4)c23)cc1 [Compound 26] | < 1000 nM
11 | O=C(Nc1ccccc1)Nc1ccc(CCOc2ncnc3oc(-c4ccccc4)c(-c4ccccc4)c23)cc1 [Compound 27] | 45 to 400 nM and < 1000 nM
12 | O=C(Nc1ccc(CCNc2ncnc3oc(-c4ccccc4)c(-c4ccccc4)c23)cc1)N1CCN(CCO)CC1 [Compound 34] | < 1000 nM
13 | O=C(Cc1ccccc1)Nc1ccc(CCNc2ncnc3oc(-c4ccccc4)c(-c4ccccc4)c23)cc1 [Compound 41] | 45 to 400 nM and < 1000 nM
14 | O=C(Nc1ccc(CCNc2ncnc3oc(-c4ccccc4)c(-c4ccccc4)c23)cc1)NN1CCCCC1 [Compound 45] | < 1000 nM and 45 to 400 nM
15 | COC(=O)C(Cc1ccc(NC(=O)Nc2ccccc2)cc1)Nc1ncnc2oc(-c3ccccc3)c(-c3ccccc3)c12 (stereo not drawn) [Compound 52] | < 1000 nM and 45 to 400 nM
16 | COc1ccc(-c2oc3ncnc(NCCc4ccc(NC(=O)Nc5ccccc5)cc4)c3c2-c2ccc(O)cc2)cc1 [Compound 66] | 45 to 400 nM and < 1000 nM
17 | CCCNC(=O)Nc1ccc(CCNc2ncnc3oc(-c4ccccc4)c(-c4ccccc4)c23)cc1 [Compound 67] | 45 to 400 nM and < 1000 nM
18 | CCCCCNC(=O)Nc1ccc(CCNc2ncnc3oc(-c4ccccc4)c(-c4ccccc4)c23)cc1 [Compound 68] | < 1000 nM
19 | CCCCCCNC(=O)Nc1ccc(CCNc2ncnc3oc(-c4ccccc4)c(-c4ccccc4)c23)cc1 [Compound 69] | < 1000 nM
20 | O=C(Nc1ccc(CCNc2ncnc3oc(-c4ccccc4)c(-c4ccccc4)c23)cc1)NC1CCCC1 [Compound 70] | 45 to 400 nM and < 1000 nM
21 | O=C(Nc1ccc(CCNc2ncnc3oc(-c4ccccc4)c(-c4ccccc4)c23)cc1)NC1CCCCC1 [Compound 71] | 45 to 400 nM and < 1000 nM
22 | S=C(Nc1ccc(CCNc2ncnc3oc(-c4ccccc4)c(-c4ccccc4)c23)cc1)Oc1ccccc1 [Compound 74] | < 1000 nM
23 | N#C/N=C(\Nc1ccccc1)Nc1ccc(CCNc2ncnc3oc(-c4ccccc4)c(-c4ccccc4)c23)cc1 [Compound 75] | < 1000 nM
24 | O=Cc1ccc(-c2c(-c3ccccc3)oc3ncnc(NCCc4ccc(NC(=O)Nc5ccccc5)cc4)c23)o1 [Compound 76] | 45 to 400 nM and < 1000 nM
25 | C[Si](C)(C)C#Cc1c(-c2ccccc2)oc2ncnc(NCCc3ccc(NC(=O)Nc4ccccc4)cc3)c12 [Compound 81] | < 1000 nM
26 | CCOC(=O)c1c(-c2ccccc2)oc2ncnc(NCCc3ccc(NC(=O)Nc4ccccc4)cc3)c12 [Compound 107] | < 1000 nM
27 | CN1CCN(Cc2ccc(NC(=O)Nc3ccc(CCNc4ncnc5oc(-c6ccccc6)c(-c6ccccc6)c45)cc3)cc2)CC1 [Compound 118] | < 1000 nM
28 | O=C(Nc1ccc(CCNc2ncnc3oc(-c4ccccc4)c(-c4ccccc4)c23)cc1)Nc1ccccc1CN1CCCCC1 [Compound 124] | < 1000 nM
29 | CN1CCN(Cc2ccccc2NC(=O)Nc2ccc(CCNc3ncnc4oc(-c5ccccc5)c(-c5ccccc5)c34)cc2)CC1 [Compound 126] | < 1000 nM

Further lines, results first:

Row | IC50 | SMILES
30 | 45 to 400 nM and < 1000 nM | O=C(Nc1ccc(CCNc2ncnc3oc(-c4ccccc4)c(-c4ccccc4)c23)cc1)c1ccccc1 [Compound 5]
31 | < 1000 nM | NC(=O)Nc1ccc(CCNc2ncnc3oc(-c4ccccc4)c(-c4ccccc4)c23)cc1 [Compound 7]
32 | 45 to 400 nM and < 1000 nM | CNC(=O)Nc1ccc(CCNc2ncnc3oc(-c4ccccc4)c(-c4ccccc4)c23)cc1 [Compound 8]
33 | 45 to 400 nM and < 1000 nM | O=C(NCc1ccccc1)Nc1ccc(CCNc2ncnc3oc(-c4ccccc4)c(-c4ccccc4)c23)cc1 [Compound 10]
34 | 45 to 400 nM and < 1000 nM | S=C(Nc1ccccc1)Nc1ccc(CCNc2ncnc3oc(-c4ccccc4)c(-c4ccccc4)c23)cc1 [Compound 13]
35 | 45 to 400 nM and < 1000 nM | O=C(Nc1ccc(CCNc2ncnc3oc(-c4ccccc4)c(-c4ccccc4)c23)cc1)Nc1cccc(Cl)c1 [Compound 15]
36 | < 1000 nM | O=C(Nc1ccc(CCNc2ncnc3oc(-c4ccccc4)c(-c4ccccc4)c23)cc1)Nc1cccc(Br)c1 [Compound 16]
37 | 45 to 400 nM and < 1000 nM | Cc1cccc(NC(=O)Nc2ccc(CCNc3ncnc4oc(-c5ccccc5)c(-c5ccccc5)c34)cc2)c1 [Compound 28]
38 | 45 to 400 nM and < 1000 nM | O=C(Nc1ccc(CCNc2ncnc3oc(-c4ccccc4)c(-c4ccccc4)c23)cc1)Nc1cccc(C(F)(F)F)c1 [Compound 29]
39 | 45 to 400 nM and < 1000 nM | N#Cc1cccc(NC(=O)Nc2ccc(CCNc3ncnc4oc(-c5ccccc5)c(-c5ccccc5)c34)cc2)c1 [Compound 30]
40 | 45 to 400 nM and < 1000 nM | CC(=O)c1cccc(NC(=O)Nc2ccc(CCNc3ncnc4oc(-c5ccccc5)c(-c5ccccc5)c34)cc2)c1 [Compound 31]
41 | 45 to 400 nM and < 1000 nM | O=C(Nc1ccc(CCNc2ncnc3oc(-c4ccccc4)c(-c4ccccc4)c23)cc1)Nc1cccc([N+](=O)[O-])c1 [Compound 32]
42 | < 1000 nM | COc1cccc(NC(=O)Nc2ccc(CCNc3ncnc4oc(-c5ccccc5)c(-c5ccccc5)c34)cc2)c1 [Compound 40]
43 | 45 to 400 nM and < 1000 nM | COc1ccc(-c2c(-c3ccccc3)oc3ncnc(NCCc4ccc(NC(=O)Nc5ccccc5)cc4)c23)cc1 [Compound 56]
44 | 45 to 400 nM and < 1000 nM | COc1cccc(-c2c(-c3ccccc3)oc3ncnc(NCCc4ccc(NC(=O)Nc5ccccc5)cc4)c23)c1 [Compound 59]
45 | 45 to 400 nM and < 1000 nM | O=C(Nc1ccc(CCNc2ncnc3oc(-c4ccccc4)c(-c4ccccc4)c23)cc1)Nc1ccc(F)c(F)c1 [Compound 62]

Row | IC50 | SMILES
46 | 45 to 400 nM and < 1000 nM | O=C(Nc1ccc(CCNc2ncnc3oc(-c4ccccc4)c(-c4ccccc4)c23)cc1)Nc1cc(F)cc(F)c1 [Compound 63]
47 | < 1000 nM | CC(=O)Nc1cccc(NC(=O)Nc2ccc(CCNc3ncnc4oc(-c5ccccc5)c(-c5ccccc5)c34)cc2)c1 [Compound 64]
48 | < 1000 nM | COc1ccc(NC(=O)Nc2ccc(CCNc3ncnc4oc(-c5ccccc5)c(-c5ccccc5)c34)cc2)cc1 [Compound 72]
49 | 45 to 400 nM and < 1000 nM | O=C(Nc1ccc(CCNc2ncnc3oc(-c4ccccc4)c(-c4ccccc4)c23)cc1)Nc1ccc2c(c1)OCO2 [Compound 73]
50 | 45 to 400 nM and < 1000 nM | O=C(Nc1ccccc1)Nc1ccc(CCNc2ncnc3oc(-c4ccccc4)c(-c4ccc([N+](=O)[O-])cc4)c23)cc1 [Compound 77]
51 | 45 to 400 nM and < 1000 nM | O=C(Nc1ccccc1)Nc1ccc(CCNc2ncnc3oc(-c4ccccc4)c(-c4cccc(O)c4)c23)cc1 [Compound 78]
52 | 45 to 400 nM and < 1000 nM | O=C(Nc1ccc(CCNc2ncnc3oc(-c4ccccc4)c(-c4ccccc4)c23)cc1)Nc1cccc(F)c1F [Compound 91]
53 | < 1000 nM | O=C(Nc1ccc(CCNc2ncnc3oc(-c4ccccc4)c(-c4ccccc4)c23)cc1)Nc1c(F)cccc1F [Compound 94]
54 | < 1000 nM | COc1ccc(NC(=O)Nc2ccc(CCNc3ncnc4oc(-c5ccccc5)c(-c5ccccc5)c34)cc2)cc1OC [Compound 95]
55 | 45 to 400 nM and < 1000 nM | O=C(Nc1ccc(CCNc2ncnc3oc(-c4ccccc4)c(-c4ccccc4)c23)cc1)Nc1ccccc1[N+](=O)[O-] [Compound 97]
56 | 45 to 400 nM and < 1000 nM | Cc1ccc(NC(=O)Nc2ccc(CCNc3ncnc4oc(-c5ccccc5)c(-c5ccccc5)c34)cc2)cc1 [Compound 98]
57 | < 1000 nM | CN(C)c1ccc(NC(=O)Nc2ccc(CCNc3ncnc4oc(-c5ccccc5)c(-c5ccccc5)c34)cc2)cc1 [Compound 100]
58 | < 1000 nM and 45 to 400 nM | CN(C)Cc1cccc(NC(=O)Nc2ccc(CCNc3ncnc4oc(-c5ccccc5)c(-c5ccccc5)c34)cc2)c1 [Compound 119]
59 | < 1000 nM | CN1CCN(Cc2cccc(NC(=O)Nc3ccc(CCNc4ncnc5oc(-c6ccccc6)c(-c6ccccc6)c45)cc3)c2)CC1 [Compound 122]
60 | 45 to 400 nM and < 1000 nM | O=C(Nc1ccc(CCNc2ncnc3oc(-c4ccccc4)c(-c4ccccc4)c23)cc1)Nc1ccccn1 [Compound 146]
